Where a SMILES comes first, the peptide text is derived from it. [ ]: non-standard residue; d: D form.

The target of one experiment is T1, wild-type PTHR (Mus musculus, UniProt P41593).
T1 construct: Wild-type mice were injected with a PTH agonist analog; from tissue; host or cells: whole animal, wild-type mice (C57BL/6J per methods)
T1 sequence (P41593 27-591): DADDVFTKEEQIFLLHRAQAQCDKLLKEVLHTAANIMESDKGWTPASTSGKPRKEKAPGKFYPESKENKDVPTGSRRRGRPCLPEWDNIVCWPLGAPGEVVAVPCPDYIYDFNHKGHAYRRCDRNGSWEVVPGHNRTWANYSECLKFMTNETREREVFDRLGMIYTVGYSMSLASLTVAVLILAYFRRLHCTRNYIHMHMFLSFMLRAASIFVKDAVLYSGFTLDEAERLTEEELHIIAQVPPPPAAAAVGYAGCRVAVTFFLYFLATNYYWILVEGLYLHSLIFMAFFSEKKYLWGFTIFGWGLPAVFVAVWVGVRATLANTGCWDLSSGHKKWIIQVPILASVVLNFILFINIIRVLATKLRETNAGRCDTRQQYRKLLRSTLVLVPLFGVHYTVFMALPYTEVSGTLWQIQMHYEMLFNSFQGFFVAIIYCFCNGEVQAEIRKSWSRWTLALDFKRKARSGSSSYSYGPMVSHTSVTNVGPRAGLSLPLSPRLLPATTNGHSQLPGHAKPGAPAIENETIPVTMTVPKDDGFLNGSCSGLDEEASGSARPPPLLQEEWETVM
Nature of the experiment: Mouse transient model of hyperparathyroidism (PEG-PTH(1-35)-induced hypercalcemia), blood Ca2+. It counts as in vivo. The conditions noted are these: 10-week old female CD1 mice; PEG-PTH(1-35)-1925 50 nmol/kg i.v. at −24 h; peptide 500 nmol/kg at 0 h; P<0.05 vs vehicle at 2 h. As for the experimental part:
Mice were injected IV via the tail vein or subcutaneously with ligands in vehicle (0.05% Tween80; 10 mM citrate; 150 mM NaCl; pH 5.0) to give the intended final ligand dose (e.g. 50 nmol/kg body weight). At times immediately before (t=0) and after injection, tail vein blood was collected and analyzed for blood ionized calcium (Ca^2+) measured with a RAPIDLAB 348 analyzer (SIEMENS Healthcare Diagnostic, United Kingdom).
To study antagonism at the wild-type PTHR under conditions of excess PTH, as occurs in humans with hyperparathyroidism, we developed a mouse non-genetic, transient model of hyperparathyroidism. Wild-type mice were injected with a PTH agonist analog, PEG-PTH(1-35), which induces hypercalcemia lasting between 24 and 72 hours after a single s.c. injection (see Guo et al., Journal of Bone and Mineral Research, 32:86-98, 2017). Antagonists were injected after 24 hours following the injection of PEG-PTH(1-35) and effects on blood Ca^2+ levels were measured. The results are illustrated in FIGS. 12A and 12B.

The next experiment has as its target T2, PTHR1 (Homo sapiens, UniProt Q03431).
T2 construct: expressed in transfected cells; host or cells: GP-2.3 (HEK-293 stably transfected with hPTHR1 and GloSensor)
T2 sequence (Q03431 27-593): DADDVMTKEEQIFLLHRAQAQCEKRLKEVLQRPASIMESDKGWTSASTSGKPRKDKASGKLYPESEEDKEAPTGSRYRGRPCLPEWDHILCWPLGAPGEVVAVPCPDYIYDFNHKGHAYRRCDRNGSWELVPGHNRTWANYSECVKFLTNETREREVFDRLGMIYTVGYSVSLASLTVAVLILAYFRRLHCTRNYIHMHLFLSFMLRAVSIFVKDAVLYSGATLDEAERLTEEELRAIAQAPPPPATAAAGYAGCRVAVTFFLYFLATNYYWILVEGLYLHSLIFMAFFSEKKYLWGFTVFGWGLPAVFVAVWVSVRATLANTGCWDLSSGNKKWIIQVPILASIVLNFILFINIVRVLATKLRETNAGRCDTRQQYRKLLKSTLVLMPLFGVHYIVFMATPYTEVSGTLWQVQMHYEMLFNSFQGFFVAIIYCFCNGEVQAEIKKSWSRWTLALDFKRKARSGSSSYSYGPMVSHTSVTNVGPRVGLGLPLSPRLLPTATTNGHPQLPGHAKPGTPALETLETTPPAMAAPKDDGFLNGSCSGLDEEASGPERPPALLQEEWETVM
Nature of the experiment: Antagonism of PTH(1-34)-induced cAMP response (GloSensor) in GP-2.3 cells. It counts as cell-based. The conditions noted are these: inhibition of PTH(1-34)-induced maximum response, read-out: corresponding nanomolar value of pIC50 (Table 4) (converted). The method, then: cAMP signaling was assessed in the HEK293-derived or SaOS2-derived cell lines stably expressing the luciferase-based GloSensor™ cAMP reporter (Hattersley et al., Paper presented at: Novel Signaling Mechanisms and Bone Cell Biology 2014; Binkowski et al., Methods in molecular biology. 756:263-271). HEK-293 cells were further transfected to stably express the hPTHR1, hPTHR1-H223R, or hPTHR1-T410P. The cells were seeded into 96-well white plates and were assayed 24 to 48 hours post-confluency. Assays were performed at room temperature in CO2-independent culture media (Life Technologies, Corp., Carlsbad, Calif.) containing 0.1% BSA (CIDB). The cells were pre-loaded with luciferin (0.5 mM in CIDB) for 15 minutes, then PTH peptides were added at varying concentrations. cAMP-dependent luminescence was measured at two-minute intervals using a PerkinElmer Envision plate reader. The time at which maximum luminescence (cps) observed with agonist alone, typically at 10-20 minutes after agonist addition, was used to obtain data from wells containing antagonist with or without agonist, to thus generate antagonist ligand dose-response curves. The resulting cps values were then plotted against ligand concentration using GraphPad Prism 7.0 software and a four-parameter logistics curve fitting equation, which yielded parameters of inhibitory potency (pIC50).
Pharmacological properties of the ligands were assessed in cells expressing the PTHR1 and the GloSensor™ cAMP reporter. The assays used GP-2.3 cells, derived from HEK293 cells by stable transfection with the hPTHR1 and GloSensor™, as well as SGS-72 cells, which are derived from the human osteosarcoma cell line, Saos-2, in which is endogenously expressed the hPTHR1, by stable transfection with GloSensor™. Binding of representative polypeptides to the PTHR1 was assessed in GP-2.3 cells by radioligand competition methods (FIGS. 1A and 1B, Table 3).
[…] concentration of antagonist that inhibited the maximum response to PTH(1-34)-induced in the absence of antagonist (at ˜40 minutes) is reported in units of -log M (pIC50), and the corresponding nanomolar value is shown below each pIC50 value. Data are means of the number of experiments indicated (n). The PTH(1-34)-induced maximum luminescence was ˜80,000 cps and the basal was ˜1,000 cps. TMR indicates Lys13 modified at epsilon amino function with TMR, P vs. inhibition by dW12,Y34-bPTH(7-34).

On to `CC[C@H](C)[C@H](N)C(=O)N[C@@H](CCC(N)=O)C(=O)N[C@@H](CC(C)C)C(=O)N[C@@H](CCSC)C(=O)N[C@@H](Cc1c[nH]cn1)C(=O)N[C@@H](CCC(N)=O)C(=O)N[C@@H](CCCNC(=N)N)C(=O)N[C@H](Cc1c[nH]c2ccccc12)C(=O)N[C@@H](CCCCN)C(=O)N[C@@H](Cc1c[nH]c2ccccc12)C(=O)N[C@H](C(=O)N[C@@H](CCC(N)=O)C(=O)N[C@@H](CC(=O)O)C(=O)N[C@@H](C)C(=O)N[C@@H](CCCNC(=N)N)C(=O)N[C@@H](CCCNC(=N)N)C(=O)N[C@@H](CCCNC(=N)N)C(=O)N[C@@H](C)C(=O)N[C@@H](Cc1c[nH]c2ccccc12)C(=O)N[C@@H](CC(C)C)C(=O)N[C@@H](Cc1c[nH]cn1)C(=O)N[C@@H](CCCCN)C(=O)N[C@@H](CC(C)C)C(=O)N[C@H](C(=O)N[C@@H](C)C(=O)N[C@@H](CCC(=O)O)C(=O)N[C@H](C(=O)N[C@@H](Cc1c[nH]cn1)C(=O)N[C@H](C(=O)N[C@@H](C)C(=O)N[C@@H](CCC(=O)O)C(=O)N[C@H](C(N)=O)[C@@H](C)CC)[C@@H](C)O)[C@@H](C)CC)[C@@H](C)CC)[C@@H](C)CC` [compound 1949, dW12, W23-LA-PTH(5-36)] (H-IQLMHQR[dW]KWIQDARRRAWLHKLIAEIHTAEI-NH2; N-terminus assumed), for which the “effect on blood Ca^2+ (FIG. 12A)” value on wild-type PTHR was “reduced blood Ca^2+”. Moreover, the IC50 on PTHR1 is 101 nM.

The values above are taken from US20190119348A1, “PARATHYROID HORMONE RECEPTOR 1 ANTAGONIST AND INVERSE AGONIST POLYPEPTIDES AND METHODS OF THEIR USE” (The General Hospital Corporation, priority 2016, published 2019).
